The record followed here is publication PMC5618418, “Pharmacokinetics of Jaspine B and Enhancement of Intestinal Absorption of Jaspine B in the Presence of Bile Acid in Rats” (Marine Drugs, 2017).

The nature of data set [1]: Metabolic stability in rat liver microsomes. The class given is in vitro ADME. Conditions: 1 μM, rat liver microsomes, NADPH-generating system, 60 min, 37 °C. As to the method: Jaspine B (1 μM) was reconstituted in 100 mM potassium phosphate buffer (pH 7.4) containing 0.25 mg of RLMs and was pre-incubated for 5 min at 37 °C. The reaction was initiated by adding an NADPH-generating system (1.3 mM β-NADP, 3.3 mM glucose-6-phosphate, 3.3 mM MgCl2, and 1.0 unit/mL glucose-6-phosphate dehydrogenase) and then incubated (final volume 100 μL) for 0, 15, 30, and 60 min at 37 °C in a shaking water bath. The reaction was stopped by placing the incubation tubes on ice and adding 200 μL of ice-cold acetonitrile containing 0.5 ng/mL of berberine. After vortexing for 10 min and centrifugation at 13,200 rpm for 5 min, 2 μL of the supernatant was injected directly into the LC-MS/MS system.

The nature of another data set: in vitro. The class given is in vitro ADME, rat. As to the method:
For the measurement of the effect of TC on the tight junction of biological membranes, the permeability of 50 μM Lucifer yellow, a marker of paracellular permeation, was measured in the presence of TC (0, 0.1, 1, 10, 100 mM). Prior to the experiment, ileal segments from SD rats (about 20 cm) were placed in the chambers and were submerged in fresh, prewarmed (37 °C) HBSS for 15 min for acclimatization. The chambers were continuously bubbled with carbogen gas (5% CO2/ 95% O2) during the experiment. The experiments began by replacing the HBSS with HBSS containing 50 μM Lucifer yellow and various concentrations of TC on the apical side (A) and adding fresh HBSS to the basal side (B). Aliquots (400 μL) of media were withdrawn from the receiver compartment (B) after 0, 20, 40, 60, and 80 min, and the volume of liquid in the receiver compartment was replenished with fresh, prewarmed HBSS after each sampling. Aliquots (200 μL) of all samples were used for the determination of Lucifer yellow concentration. The fluorescence of Lucifer yellow in the samples was measured using a fluorescence spectrophotometer (Infinite 200 PRO, Tecan, Switzerland) with excitation at 425 nm and emission at 535 nm.
A to B and B to A permeability of Jaspine B was measured in the presence of TC and rat bile. One mL of HBSS containing 50 μM Jaspine B and 10 mM TC or 20% bile was added to the donor side and 1 mL of preheated fresh HBSS was added to the receiver side. Aliquots (400 μL) of media were withdrawn at 0, 20, 40, 60, and 80 min from the receiver compartment as described above. Aliquots (50 μL) of all samples were stored at −80 °C until analysis.
Aliquots (50 μL) of all samples were added to 250 μL of acetonitrile containing 0.5 ng/mL of berberine. After vortexing for 10 min and centrifugation at 13,200 rpm for 5 min, 2 μL of the supernatant was injected directly into the LC-MS/MS system.
The apparent permeability (Papp) of the drug was calculated by dividing the initial drug transport rate (dQ/dt, pmol/min) by the initial drug concentration in the donor compartment of the insert (Co) multiplied by the surface area of the insert (A, cm^2): (3) Papp=dQ/dt×1/ACo

As to `CN(C)C(=N)N=C(N)N` [metformin, reference compound], in data set [1], the percentage remaining was 63.4%.
Take Lucifer yellow [reference compound]: in the data set “in vitro”, the “increase of permeability caused by tight junction opening” value is ~ 2.8 fold and the permeability change result was “sharp increase”.
